# Measurements published in paper PMC11762957, “Rescue of Mutant CFTR Channel Activity by Investigational Co-Potentiator Therapy” (Biomedicines, 2025).
# Tests used:
# p.Ser549Arg-CFTR = biological target: T1, p.Ser549Arg-CFTR (Homo sapiens, UniProt P13569, S549R); experiment: HS-YFP assay, CFBE41o- cells transiently transfected with p.Ser549Arg-CFTR; assay type: cell-based; conditions: c.1645A>C or c.1647T>G, Fsk 5 μM
# T1 construct: expressed in transfected cells; host or cells: CFBE41o- cells stably expressing HS-YFP, transient transfection of pcDNA5-CFTR
# T1 sequence (P13569 whole entry S549R): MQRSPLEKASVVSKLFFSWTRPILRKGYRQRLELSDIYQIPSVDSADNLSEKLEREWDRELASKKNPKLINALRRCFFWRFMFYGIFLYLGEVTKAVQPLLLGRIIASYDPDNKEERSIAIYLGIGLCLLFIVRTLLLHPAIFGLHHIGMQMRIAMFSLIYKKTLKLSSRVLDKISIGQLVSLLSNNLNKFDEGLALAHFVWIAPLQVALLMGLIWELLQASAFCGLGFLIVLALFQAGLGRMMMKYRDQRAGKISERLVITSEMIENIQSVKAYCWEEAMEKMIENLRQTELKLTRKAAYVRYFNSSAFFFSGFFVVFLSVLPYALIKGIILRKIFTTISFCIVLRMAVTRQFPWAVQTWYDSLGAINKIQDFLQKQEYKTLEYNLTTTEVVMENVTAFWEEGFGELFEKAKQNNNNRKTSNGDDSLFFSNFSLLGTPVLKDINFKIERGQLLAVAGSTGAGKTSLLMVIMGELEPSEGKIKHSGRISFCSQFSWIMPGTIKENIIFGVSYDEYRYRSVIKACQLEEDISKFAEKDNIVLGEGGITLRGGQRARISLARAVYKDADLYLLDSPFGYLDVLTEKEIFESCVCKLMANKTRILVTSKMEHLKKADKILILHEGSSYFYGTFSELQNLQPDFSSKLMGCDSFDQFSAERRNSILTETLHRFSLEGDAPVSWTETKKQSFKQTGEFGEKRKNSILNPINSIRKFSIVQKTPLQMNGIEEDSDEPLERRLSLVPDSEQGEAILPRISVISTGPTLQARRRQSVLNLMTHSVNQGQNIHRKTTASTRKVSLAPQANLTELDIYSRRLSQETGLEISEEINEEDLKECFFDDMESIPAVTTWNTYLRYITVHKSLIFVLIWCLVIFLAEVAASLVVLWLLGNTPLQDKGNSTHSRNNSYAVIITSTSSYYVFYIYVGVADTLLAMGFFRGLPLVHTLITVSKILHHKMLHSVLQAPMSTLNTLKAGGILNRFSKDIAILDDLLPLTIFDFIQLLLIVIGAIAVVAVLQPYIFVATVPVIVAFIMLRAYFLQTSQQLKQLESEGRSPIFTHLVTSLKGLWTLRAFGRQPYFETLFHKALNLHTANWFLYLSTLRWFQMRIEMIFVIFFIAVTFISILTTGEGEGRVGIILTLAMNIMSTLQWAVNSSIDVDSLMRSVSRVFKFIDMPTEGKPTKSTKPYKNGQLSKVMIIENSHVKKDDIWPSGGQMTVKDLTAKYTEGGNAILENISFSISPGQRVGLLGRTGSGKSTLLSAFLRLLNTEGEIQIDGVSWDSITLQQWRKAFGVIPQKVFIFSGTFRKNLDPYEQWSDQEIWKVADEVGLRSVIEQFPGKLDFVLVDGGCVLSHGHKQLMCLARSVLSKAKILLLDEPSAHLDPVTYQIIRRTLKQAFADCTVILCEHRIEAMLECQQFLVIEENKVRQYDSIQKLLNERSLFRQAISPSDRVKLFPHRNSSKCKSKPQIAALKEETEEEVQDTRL
# Experimental: Site-directed mutagenesis was performed using KOD HOT start DNA polymerase (#71086-3, Sigma-Aldrich, St. Louis, MO, USA), according to manufacturer’s instructions, to insert variants under study (c.613C>T or p.Pro205Ser; c.1645A>C or p.Ser549Arg; c.1647T>G or p.Ser549Arg; c.1652G>A or p.Gly551Asp; c.2834C>T or p.Ser945Leu; and c.4046G>A or p.Gly1349Asp) into CFTR cDNA cloned in the pcDNA5 expression vector. After confirmation by Sanger sequencing, CFBE41o^− cells expressing HS-YFP seeded onto 96-well plates were transfected with 0.1 µg per well of the indicated plasmid. Lipofectamine 3000 (#L3000015, ThermoFischer Scientific, Waltham, MA, USA) was used as the transfection agent diluted in Opti-MEM reduced serum medium (#31985070, ThermoFischer Scientific, Waltham, MA, USA) according to manufacturer’s instructions.
# CFTR activity was determined by the HS-YFP microfluorimetric assay (described in detail in previous studies) using CFBE41o^− cells expressing HS-YFP together with stably expressed p.Arg334Trp-CFTR or transiently transfected with CFTR cDNA (variants p.Pro205Ser, p.Ser549Arg, p.Gly551Asp, p.Ser945Leu, and p.Gly1349Asp) cloned into pcDNA5. […] Thereafter, cells were transferred to a microplate reader (Tecan Infinite 200 Pro) equipped with high-quality excitation (485 ± 20 nm) and emission (535 ± 25 nm) filters for YFP. Each reading consisted of a continuous 14 s fluorescence recording with 2 s before and 12 s after injection of 165 μL of an iodide-containing solution (PBS with Cl^− replaced by I^−; final I^− concentration: 100 mM). Data were normalized to the initial background-subtracted fluorescence. […]
# As CFTR variants with similar defect(s) may respond differently to the same treatment(s), we assessed whether LSO-24 or its derivative LSO-150, alone or in combination(s), could rescue CFTR activity for other variants with gating/conductance defects. […] After 24 h, the cells were acutely stimulated with Fsk plus test compound(s), and the cell fluorescence was recorded before and after the addition of an I^−-containing solution. […]
# p.Arg334Trp-CFTR = biological target: T2, p.Arg334Trp-CFTR (Homo sapiens, UniProt P13569, R334W); experiment: HS-YFP assay on a plate reader (CFTR-mediated I- influx), CFBE41o- cells co-expressing HS-YFP and p.Arg334Trp-CFTR; assay type: cell-based
# T2 construct: expressed in transfected cells
# T2 sequence (P13569 whole entry R334W): as the sequence (P13569 whole entry S549R) above, with R334W, R549S counted along it
# Experimental: Parental CFBE41o^− cells stably expressing HS-YFP (p.His148Gln-Ile152Leu) were cultured in minimum essential medium (MEM, #10-010-CV, Corning, VA, USA) supplemented with 10% fetal bovine serum (#LTI 10270-106, Gibco, Carlsbad, CA, USA). CFBE41o^− cells stably co-expressing HS-YFP (p.Phe46Leu-His148Gln-Ile152Leu) and p.Arg334Trp-CFTR were cultured in a similar medium including 2 µg mL^−1 puromycin (#P8833, Sigma-Aldrich, St. Louis, MO, USA). For the YFP assay of CFTR activity, cells were plated (30,000 cells/well) on 96-well clear-bottom, black-walled microplates (#655090, Greiner Bio-One, Kremsmünster, Austria). All cells were maintained in a humidified incubator (5% CO2) at 37 °C.
# CFTR activity was determined by the HS-YFP microfluorimetric assay (described in detail in previous studies) using CFBE41o^− cells expressing HS-YFP together with stably expressed p.Arg334Trp-CFTR or transiently transfected with CFTR cDNA (variants p.Pro205Ser, p.Ser549Arg, p.Gly551Asp, p.Ser945Leu, and p.Gly1349Asp) cloned into pcDNA5. Briefly, cells were washed with phosphate-buffered saline (PBS; in mM: 137 NaCl, 2.7 KCl, 8.1 Na2HPO4, 1.5 KH2PO4, 1 CaCl2, and 0.5 MgCl2) and then incubated for 30 min at 37 °C with 60 μL of PBS plus Fsk (5 μM) and test compound(s) to stimulate CFTR channels. DMSO (vehicle) and VX-770 (1 μM) were used as negative and positive controls, respectively. All conditions were performed in triplicate on each plate. Thereafter, cells were transferred to a microplate reader (Tecan Infinite 200 Pro) equipped with high-quality excitation (485 ± 20 nm) and emission (535 ± 25 nm) filters for YFP. Each reading consisted of a continuous 14 s fluorescence recording with 2 s before and 12 s after injection of 165 μL of an iodide-containing solution (PBS with Cl^− replaced by I^−; final I^− concentration: 100 mM). Data were normalized to the initial background-subtracted fluorescence. To determine the I^− influx rate, the final 11 s of the data for each well were fitted with an exponential function to extrapolate the initial slope (dF/dt).
# All the compounds (Scheme 1) were tested in CFBE41o^− cells co-expressing HS-YFP and p.Arg334Trp-CFTR to assess CFTR-mediated I^− influx based on fluorescence quenching. The cells were incubated for 30 min with Fsk (an adenyl cyclase activator that increases intracellular cAMP levels) plus the test compounds in two different concentrations (3 and 20 μM). Thereafter, the efficacy of the compounds in rescuing CFTR activity was determined by the YFP quenching rate and normalized to DMSO (negative control). […] Such an increase was equivalent to that of the cells treated with VX-770 or apigenin (used as positive controls).
# Next, the active compounds were submitted for further analysis for evaluation of their potency and efficacy. To this aim, the compounds were retested as potentiators at various concentrations in the range 0.16–30 μM with Fsk on CFBE41o^− cells.
smiles,measurement,setting,value
CCOC(=O)c1ccc(-n2cc(C(O)c3ccc(Br)cc3)nn2)cc1 (stereo not drawn) [LSO-150],Net effect with co-administration of ABBV-3067,p.Ser549Arg-CFTR; + ABBV-3067 10 μM,increased
same,Net effect with co-administration of VX-770,p.Ser549Arg-CFTR; + VX-770 1 μM,increased
same,"CFTR activity (fluorescence quenching rate), single compound","p.Ser549Arg-CFTR; LSO-24 5 μM, LSO-150 3 μM",increased CFTR activity
same,EC50,"p.Arg334Trp-CFTR; CFBE41o- cells, with Fsk, concentrations 0.16–30 μM, read-out: EC50 (potentiation of p.Arg334Trp-CFTR activity)",1010 nM
same,Fluorescence quenching rate in combination with ABBV-974,"p.Arg334Trp-CFTR; LSO-150 3 μM or LSO-153 5 μM + ABBV-974 10 μM, Fsk 5 μM, vs single potentiator",further increase in the fluorescence quenching rate
same,Fluorescence quenching rate in combination with ABBV-3067,"p.Arg334Trp-CFTR; LSO-150 3 μM or LSO-153 5 μM + ABBV-3067 10 μM, Fsk 5 μM, vs single potentiator",further increase in the fluorescence quenching rate
same,Fluorescence quenching rate in combination with VX-770,"p.Arg334Trp-CFTR; LSO-150 3 μM or LSO-153 5 μM + VX-770 1 μM, Fsk 5 μM, vs single potentiator",further increase in the fluorescence quenching rate
same,Fluorescence quenching rate in combination with apigenin,"p.Arg334Trp-CFTR; LSO-150 3 μM or LSO-153 5 μM + apigenin 50 μM, Fsk 5 μM, vs single potentiator",equivalent cell-fluorescence quenching rate to that of each compound individually
same,CFTR-mediated I- influx (YFP quenching rate normalized to DMSO),"p.Arg334Trp-CFTR; test compound 3 and 20 μM, 30 min with Fsk 5 μM, vs DMSO",increase in CFTR-mediated I^− influx
